Source: patent publication US8741944B2, “Anti-infective agents against intracellular pathogens” (priority 2007, dated 2014)
Read-outs that look alike come from different tables or passages of the source.

Legend:
UO-31 (Renal Cancer) = assay: NCI DTP tumor cell line screen (SRB), UO-31
Procedure: (§1) For a typical screening experiment, cells are inoculated into 96 well microtiter plates in 100 μL at plating densities ranging from 5,000 to 40,000 cells/well depending on the doubling time of individual cell lines. After cell inoculation, the microtiter plates are incubated at 37° C., 5% CO2, 95% air and 100% relative humidity for 24 h prior to addition of experimental drugs.
(§2) After 24 h, two plates of each cell line are fixed in situ with TCA, to represent a measurement of the cell population for each cell line at the time of drug addition (Tz). Experimental drugs are solubilized in dimethyl sulfoxide at 400-fold the desired final maximum test concentration and stored frozen prior to use. At the time of drug addition, an aliquot of frozen concentrate is thawed and diluted to twice the desired final maximum test concentration with complete medium containing 50 μg/ml gentamicin. Additional four, 10-fold or ½ log serial dilutions are made to provide a total of five drug concentrations plus control. Aliquots of 100 μl of these different drug dilutions are added to the appropriate microtiter wells already containing 100 μl of medium, resulting in the required final drug concentrations.
(§3) Following drug addition, the plates are incubated for an additional 48 h at 37° C., 5% CO2, 95% air, and 100% relative humidity. For adherent cells, the assay is terminated by the addition of cold TCA. Cells are fixed in situ by the gentle addition of 50 μl of cold 50% (w/v) TCA (final concentration, 10% TCA) and incubated for 60 minutes at 4° C. The supernatant is discarded, and the plates are washed five times with tap water and air dried. Sulforhodamine B (SRB) solution (1001) at 0.4% (w/v) in 1% acetic acid is added to each well, and plates are incubated for 10 minutes at room temperature. After staining, unbound dye is removed by washing five times with 1% acetic acid and the plates are air dried. Bound stain is subsequently solubilized with 10 mM trizma base, and the absorbance is read on an automated plate reader at a wavelength of 515 nm. For suspension cells, the methodology is the same except that the assay is terminated by fixing settled cells at the bottom of the wells by gently adding 50 μl of 80% TCA (final concentration, 16% TCA). Using the seven absorbance measurements [time zero, (Tz), control growth, (C), and test growth in the presence of drug at the five concentration levels (Ti)], the percentage growth is calculated at each of the drug concentrations levels. Percentage growth inhibition is calculated as: [(Ti−Tz)/(C−Tz)]×100 for concentrations for which Ti>/=Tz [(Ti−Tz)/Tz]×100 for concentrations for which Ti<Tz
(§4) Three dose response parameters are calculated for each experimental agent. […] The drug concentration resulting in total growth inhibition (TGI) is calculated from Ti=Tz. […] Values are calculated for each of these three parameters if the level of activity is reached; however, if the effect is not reached or is exceeded, the value for that parameter is expressed as greater or less than the maximum or minimum concentration tested.

CCRF-CEM (Leukemia) = assay: NCI DTP tumor cell line screen (SRB), CCRF-CEM
Procedure: as §1, §2, §3, §4

SK-MEL-28 (Melanoma) = assay: NCI DTP tumor cell line screen (SRB), SK-MEL-28
Procedure: as §1, §2, §3, §4

DU-145 (Prostate Cancer) = assay: NCI DTP tumor cell line screen (SRB), DU-145
Procedure: as §1, §2, §3, §4

LOX IMVI (Melanoma) = assay: NCI DTP tumor cell line screen (SRB), LOX IMVI
Procedure: as §1, §2, §3, §4

OVCAR-4 (Ovarian Cancer) = assay: NCI DTP tumor cell line screen (SRB), OVCAR-4
Procedure: as §1, §2, §3, §4

PC-3 (Prostate Cancer) = assay: NCI DTP tumor cell line screen (SRB), PC-3
Procedure: as §1, §2, §3, §4

SW-620 (Colon Cancer) = assay: NCI DTP tumor cell line screen (SRB), SW-620
Procedure: as §1, §2, §3, §4

[1] = tested on: NCI-H460 (Non-Small Cell Lung Cancer)
Procedure: as §1, §2, §3, §4

K-562 (Leukemia) = assay: NCI DTP tumor cell line screen (SRB), K-562
Procedure: as §1, §2, §3, §4

UACC-62 (Melanoma) = assay: NCI DTP tumor cell line screen (SRB), UACC-62
Procedure: as §1, §2, §3, §4

RPMI-8226 (Leukemia) = assay: NCI DTP tumor cell line screen (SRB), RPMI-8226
Procedure: as §1, §2, §3, §4

CAKI-1 (Renal Cancer) = assay: NCI DTP tumor cell line screen (SRB), CAKI-1
Procedure: as §1, §2, §3, §4

[2] = tested on: NCI-H522 (Non-Small Cell Lung Cancer)
Procedure: as §1, §2, §3, §4

SK-OV-3 (Ovarian Cancer) = assay: NCI DTP tumor cell line screen (SRB), SK-OV-3
Procedure: as §1, §2, §3, §4

4-[5-(2-Phenanthrenyl)-3-(trifluoromethyl)-1H-pyrazol-1-yl]-phenyl -guanidine [Compound 71]
GI50 (UO-31 (Renal Cancer)): 1570 nM | TGI (UO-31 (Renal Cancer)): 2.92E−06 | Percent Growth (UO-31 (Renal Cancer); Log10 Concentration −4.0): −35% | Percent Growth (UO-31 (Renal Cancer); Log10 Concentration −5.0): −100% | Percent Growth (UO-31 (Renal Cancer); Log10 Concentration −7.0): 94% | Percent Growth (UO-31 (Renal Cancer); Log10 Concentration −8.0): 91% | GI50 (CCRF-CEM (Leukemia)): 1230 nM | TGI (CCRF-CEM (Leukemia)): 2.48E−06 | Percent Growth (CCRF-CEM (Leukemia); Log10 Concentration −4.0): −53% | Percent Growth (CCRF-CEM (Leukemia); Log10 Concentration −5.0): −99% | Percent Growth (CCRF-CEM (Leukemia); Log10 Concentration −6.0): 65% | Percent Growth (CCRF-CEM (Leukemia); Log10 Concentration −7.0): 79% | Percent Growth (CCRF-CEM (Leukemia); Log10 Concentration −8.0): 78% | GI50 (SK-MEL-28 (Melanoma)): 1560 nM | TGI (SK-MEL-28 (Melanoma)): 2.89E−06 | Percent Growth (SK-MEL-28 (Melanoma); Log10 Concentration −4.0): −53% | Percent Growth (SK-MEL-28 (Melanoma); Log10 Concentration −5.0): −100% | Percent Growth (SK-MEL-28 (Melanoma); Log10 Concentration −7.0): 90% | GI50 (DU-145 (Prostate Cancer)): 1550 nM | TGI (DU-145 (Prostate Cancer)): 2.89E−06 | Percent Growth (DU-145 (Prostate Cancer); Log10 Concentration −4.0): −100% | Percent Growth (DU-145 (Prostate Cancer); Log10 Concentration −5.0): −100% | Percent Growth (DU-145 (Prostate Cancer); Log10 Concentration −6.0): 85% | Percent Growth (DU-145 (Prostate Cancer); Log10 Concentration −8.0): 72% | GI50 (LOX IMVI (Melanoma)): 1340 nM | TGI (LOX IMVI (Melanoma)): 2.65E−06 | Percent Growth (LOX IMVI (Melanoma); Log10 Concentration −4.0): −53% | Percent Growth (LOX IMVI (Melanoma); Log10 Concentration −5.0): −98% | Percent Growth (LOX IMVI (Melanoma); Log10 Concentration −6.0): 72% | Percent Growth (LOX IMVI (Melanoma); Log10 Concentration −8.0): 73% | GI50 (OVCAR-4 (Ovarian Cancer)): 1310 nM | TGI (OVCAR-4 (Ovarian Cancer)): 2.58E−06 | Percent Growth (OVCAR-4 (Ovarian Cancer); Log10 Concentration −4.0): −66% | Percent Growth (OVCAR-4 (Ovarian Cancer); Log10 Concentration −5.0): −100% | Percent Growth (OVCAR-4 (Ovarian Cancer); Log10 Concentration −6.0): 70% | Percent Growth (OVCAR-4 (Ovarian Cancer); Log10 Concentration −7.0): 79% | GI50 (PC-3 (Prostate Cancer)): 1380 nM | TGI (PC-3 (Prostate Cancer)): 2.67E−06 | Percent Growth (PC-3 (Prostate Cancer); Log10 Concentration −5.0): −100% | Percent Growth (PC-3 (Prostate Cancer); Log10 Concentration −6.0): 75% | Percent Growth (PC-3 (Prostate Cancer); Log10 Concentration −7.0): 73% | Percent Growth (PC-3 (Prostate Cancer); Log10 Concentration −8.0): 75% | GI50 (SW-620 (Colon Cancer)): 1750 nM | TGI (SW-620 (Colon Cancer)): 3.13E−06 | Percent Growth (SW-620 (Colon Cancer); Log10 Concentration −4.0): −92% | Percent Growth (SW-620 (Colon Cancer); Log10 Concentration −5.0): −100% | Percent Growth (SW-620 (Colon Cancer); Log10 Concentration −6.0): 98% | Percent Growth (SW-620 (Colon Cancer); Log10 Concentration −7.0): 91% | Percent Growth (SW-620 (Colon Cancer); Log10 Concentration −8.0): 83% | GI50 [1]: 1640 nM | TGI [1]: 3.04E−06 | Percent Growth ([1]; Log10 Concentration −4.0): −20% | Percent Growth ([1]; Log10 Concentration −5.0): −97% | Percent Growth ([1]; Log10 Concentration −6.0): 90% | Percent Growth ([1]; Log10 Concentration −7.0): 91% | Percent Growth ([1]; Log10 Concentration −8.0): 91% | GI50 (K-562 (Leukemia)): 326 nM | TGI (K-562 (Leukemia)): 1.52E−06 | Percent Growth (K-562 (Leukemia); Log10 Concentration −4.0): −60% | Percent Growth (K-562 (Leukemia); Log10 Concentration −5.0): −58% | Percent Growth (K-562 (Leukemia); Log10 Concentration −6.0): 13% | Percent Growth (K-562 (Leukemia); Log10 Concentration −8.0): 94% | GI50 (UACC-62 (Melanoma)): 1440 nM | TGI (UACC-62 (Melanoma)): 2.74E−06 | Percent Growth (UACC-62 (Melanoma); Log10 Concentration −4.0): −60% | Percent Growth (UACC-62 (Melanoma); Log10 Concentration −5.0): −100% | Percent Growth (UACC-62 (Melanoma); Log10 Concentration −6.0): 78% | Percent Growth (UACC-62 (Melanoma); Log10 Concentration −7.0): 83% | GI50 (RPMI-8226 (Leukemia)): 1030 nM | TGI (RPMI-8226 (Leukemia)): 2.25E−06 | Percent Growth (RPMI-8226 (Leukemia); Log10 Concentration −4.0): −47% | Percent Growth (RPMI-8226 (Leukemia); Log10 Concentration −5.0): −95% | Percent Growth (RPMI-8226 (Leukemia); Log10 Concentration −6.0): 52% | Percent Growth (RPMI-8226 (Leukemia); Log10 Concentration −7.0): 65% | Percent Growth (RPMI-8226 (Leukemia); Log10 Concentration −8.0): 58% | GI50 (CAKI-1 (Renal Cancer)): 1830 nM | TGI (CAKI-1 (Renal Cancer)): 3.22E−06 | Percent Growth (CAKI-1 (Renal Cancer); Log10 Concentration −4.0): −47% | Percent Growth (CAKI-1 (Renal Cancer); Log10 Concentration −5.0): −100% | Percent Growth (CAKI-1 (Renal Cancer); Log10 Concentration −6.0): 103% | Percent Growth (CAKI-1 (Renal Cancer); Log10 Concentration −8.0): 97% | GI50 [2]: 1450 nM | TGI [2]: 2.82E−06 | Percent Growth ([2]; Log10 Concentration −4.0): −43% | Percent Growth ([2]; Log10 Concentration −5.0): −95% | Percent Growth ([2]; Log10 Concentration −6.0): 78% | Percent Growth ([2]; Log10 Concentration −8.0): 82% | GI50 (SK-OV-3 (Ovarian Cancer)): 1430 nM | TGI (SK-OV-3 (Ovarian Cancer)): 2.94E−06 | Percent Growth (SK-OV-3 (Ovarian Cancer); Log10 Concentration −4.0): −30% | Percent Growth (SK-OV-3 (Ovarian Cancer); Log10 Concentration −5.0): −85% | Percent Growth (SK-OV-3 (Ovarian Cancer); Log10 Concentration −6.0): 75% | Percent Growth (SK-OV-3 (Ovarian Cancer); Log10 Concentration −7.0): 91%
